These results are taken from patent US20110190503A1, “Thiazolopyridin-2-yloxy-phenyl and thiazolopyrazin-2-yloxy-phenyl amines as modulators of leukotriene A4 hydrolase” (Janssen Pharmaceutical NV, priority 2008, published 2011).

Assay [1] has as its target T1, recombinant human LTA4 hydrolase (rhLTA4H) (Homo sapiens, UniProt P09960).
T1 construct: made in house; host or cells: Spodoptera frugiperda (Sf-9) cells, recombinant baculovirus (pFastBac1)
T1 sequence (P09960 1-611): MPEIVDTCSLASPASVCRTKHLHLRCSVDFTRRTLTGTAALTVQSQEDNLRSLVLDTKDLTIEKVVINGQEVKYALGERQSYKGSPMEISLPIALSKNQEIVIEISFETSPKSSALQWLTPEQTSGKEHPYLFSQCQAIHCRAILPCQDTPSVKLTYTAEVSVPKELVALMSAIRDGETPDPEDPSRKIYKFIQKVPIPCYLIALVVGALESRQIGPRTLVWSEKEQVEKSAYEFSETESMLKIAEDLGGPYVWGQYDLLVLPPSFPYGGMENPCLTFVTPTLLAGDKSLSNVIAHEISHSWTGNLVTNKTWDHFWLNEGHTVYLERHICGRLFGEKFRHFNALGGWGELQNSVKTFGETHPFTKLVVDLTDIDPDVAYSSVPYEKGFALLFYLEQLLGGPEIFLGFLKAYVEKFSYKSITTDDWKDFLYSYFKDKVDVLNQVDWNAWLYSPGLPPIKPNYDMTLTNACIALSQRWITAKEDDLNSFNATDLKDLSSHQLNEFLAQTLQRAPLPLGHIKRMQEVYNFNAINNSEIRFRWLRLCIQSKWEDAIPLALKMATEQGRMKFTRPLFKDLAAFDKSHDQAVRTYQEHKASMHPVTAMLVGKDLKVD
Briefly: Recombinant human LTA4 hydrolase assay for LTA4 hydrolase inhibitor activity. The note with it: rhLTA4H, LTA4 substrate, LTB4 by immunoassay; single determination or average; read-out: IC50. In kind it is biochemical. The method in brief: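 Recombinant human LTA4H from baculovirus-infected Sf-9 cells (10 ng) pre-incubated 10 min at rt with compound (10% DMSO in dilutions), then reacted with free-acid LTA4 for 30 min at rt. LTB4 measured by ELISA; IC50 by nonlinear regression. Values are single determinations or averages.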

Assay [2] deals with LTB4 production by calcium ionophore-stimulated murine blood. Briefly: LTB4 production by calcium ionophore-stimulated murine blood for LTA4H inhibitor activity. It counts as cell-based, CD-1 mice. The conditions noted are these: Mus musculus; murine blood diluted 1 in 15, calcium ionophore A23187, LTB4 by immunoassay; read-out: IC50. How it is done:
Assay 2: LTB4 Production by Calcium Ionophore-Stimulated Murine Blood for LTA4H Inhibitor Activity
CD-1 mice were sacrificed, and blood was collected in heparin-containing syringes by cardiac puncture. […] After the microtiter plate contents were incubated for 15 min at 37° C. in a humidified incubator, calcium ionophore A23187 (Sigma Chemical Co., St. Louis, Mo.) was added to each sample well (final concentration=7 μg/mL). The incubation was continued under the same conditions for an additional 30 min to allow LTB4 formation. The reaction was terminated by centrifugation (833×g, 10 min at 4° C.), and supernatants were analyzed for LTB4 by a commercially available enzyme-linked immunoassay (Cayman Chemical Co.) according to the manufacturer's instructions. Positive controls, under essentially identical conditions but without addition of an inhibitor compound, and negative unstimulated controls, containing all assay components except calcium ionophore, were routinely run in each experiment. […] The values presented here are the result of a single determination or an average of two or more determinations, as indicated in parentheses following each value. For compounds tested three or more times, the average value is followed by the standard deviation

Structures are written as SMILES.

As for `c1ccc(C2CCN(CCOc3ccc(Oc4nc5cccnc5s4)cc3)CC2)nc1` [Example 38, 2-{4-[2-(4-Pyridin-2-ylpiperidin-1-yl)ethoxy]phenoxy}[1,3]thiazolo[5,4-b]pyridine], the IC50 in assay [1] amounted to 61 nM; in assay [2], 950 nM.

On to `O[C@@H]1CCN(Cc2ccc(Oc3nc4ncccc4s3)cc2)C1` [Example 94, (3R)-1-[4-([1,3]Thiazolo[4,5-b]pyridin-2-yloxy)benzyl]pyrrolidin-3-ol], for which the IC50 in assay [1] is 4 nM; in assay [2], 35 nM.

For the compound `CC(=O)N1C[C@H]2CC[C@@H](C1)N2CCOc1ccc(Oc2nc3ncccc3s2)cc1` [Example 141, meso-2-{4-[2-(3-Acetyl-3,8-diazabicyclo[3.2.1]oct-8-yl)ethoxy]phenoxy}[1,3]thiazolo[4,5-b]pyridine], the 50% inhibitory concentration (IC50) worked out at 2 nM in assay [1] and 14 nM in assay [2].

Regarding `C[C@H]1COCCN1Cc1ccc(Oc2nc3ncccc3s2)cc1` [Example 88, 2-(4-{[(3S)-3-Methylmorpholin-4-yl]methyl}phenoxy)[1,3]thiazolo[4,5-b]pyridine], the values for the IC50 in assay [1] and in assay [2] were 8 nM and 50 nM, respectively.

As to `OC1(c2ccccc2)CCN(Cc2ccc(Oc3nc4ncccc4s3)cc2)CC1` [Example 105, 4-Phenyl-1-[4-([1,3]thiazolo[4,5-b]pyridin-2-yloxy)benzyl]piperidin-4-ol], the 50% inhibitory concentration (IC50) in assay [1] was 0.53 nM; in assay [2] it was 15 nM.

`CCCCN(CC)CCc1ccc(Oc2nc3ncc(C)cc3s2)cc1` [Example 178, N-Ethyl-N-(2-{4-[(6-methyl[1,3]thiazolo[4,5-b]pyridin-2-yl)oxy]phenyl}ethyl)butan-1-amine]: the IC50 was 11 nM in assay [1] and 260 nM in assay [2].

On to `CC(=O)N1[C@@H]2CC[C@H]1CN(CCOc1ccc(Oc3nc4ncccc4s3)cc1)C2` [Example 162, meso-2-{[4-({2-[8-Acetyl-3,8-diazabicyclo[3.2.1]oct-3-yl]ethyl}oxy)phenyl]oxy}[1,3]thiazolo[4,5-b]pyridine], for which the IC50 stood at 3 nM in assay [1] and 12 nM in assay [2].

With `c1ccc(CC2CCN(Cc3ccc(Oc4nc5ncccc5s4)cc3)CC2)cc1` [Example 102, 2-{4-[(4-Benzylpiperidin-1-yl)methyl]phenoxy}[1,3]thiazolo[4,5-b]pyridine], the IC50 in assay [1] worked out at 15 nM; in assay [2], 210 nM.

Consider `c1cnc(OC2CCN(Cc3ccc(Oc4nc5nccnc5s4)cc3)CC2)nc1` [Example 184, 2-[(4-{[4-(Pyrimidin-2-yloxy)piperidin-1-yl]methyl}phenyl)oxy][1,3]thiazolo[4,5-b]pyrazine], for which the IC50 in assay [1] is 18 nM; in assay [2], 110 nM.

On to `CN(CCOc1ccc(Oc2nc3ncccc3s2)cc1)Cc1ccccc1` [Example 36, N-Benzyl-N-methyl-2-[4-([1,3]thiazolo[4,5-b]pyridin-2-yloxy)phenoxy]ethanamine], for which the values for the IC50 in assay [1] and in assay [2] were 3 nM and 51 nM, respectively.

As for `C[C@H](c1ccccc1)N(C)CCc1ccc(Oc2nc3ncccc3s2)cc1` [Example 58, (1R)—N-Methyl-1-phenyl-N-{2-[4-([1,3]thiazolo[4,5-b]pyridin-2-yloxy)phenyl]ethyl}ethanamine], the IC50 amounted to 8 nM in assay [1] and 45 nM in assay [2].

`c1ccc(C2CCN(CCOc3ccc(Oc4nc5ncccc5s4)cc3)CC2)nc1` [Example 34, 2-{4-[2-(4-Pyridin-2-ylpiperidin-1-yl)ethoxy]phenoxy}[1,3]thiazolo[4,5-b]pyridine]: the IC50 in assay [1] was 19 nM; in assay [2], 140 nM.

For the compound `O=C(O)C1CCN(CCc2ccc(Oc3nc4ncccc4s3)cc2)CC1` [Example 81, 1-{2-[4-([1,3]Thiazolo[4,5-b]pyridin-2-yloxy)phenyl]ethyl}piperidine-4-carboxylic acid], the IC50 in assay [1] came out at 27 nM; in assay [2] it was 4250 nM.

Consider `Cc1ccc(SC2CCN(CCOc3ccc(Oc4nc5ncccc5s4)cc3)CC2)cc1` [Example 255, 2-[4-(2-{4-[(4-Methylphenyl)sulfanyl]piperidin-1-yl}ethoxy)phenoxy][1,3]thiazolo[4,5-b]pyridine], for which the values for the IC50 in assay [1] and in assay [2] were 71 nM and 1300 nM, respectively.
